Source: article PMC12595434, “Development of retinoid nuclear receptor pathway antagonists through targeting aldehyde dehydrogenase 1A3” (iScience, 2025)
Where “and” joins values, the source holds several entries; their conditions need not be identical. Identical values can stand only once.

Tests used:
NMDA = experiment: Off-target profiling panel; assay type: binding; conditions: 10 μM
TPX2 = target: T1, TPX2 (Homo sapiens, UniProt Q9ULW0); experiment: Thermal proteome profiling (TPP) in A375 cells; assay type: cell-based; conditions: TPX2, 100 nM
T1 construct: Treated A375 cells were harvested from 10 × 15 cm plates; endogenous in cells; host or cells: A375 melanoma cells
T1 sequence (Q9ULW0 whole entry): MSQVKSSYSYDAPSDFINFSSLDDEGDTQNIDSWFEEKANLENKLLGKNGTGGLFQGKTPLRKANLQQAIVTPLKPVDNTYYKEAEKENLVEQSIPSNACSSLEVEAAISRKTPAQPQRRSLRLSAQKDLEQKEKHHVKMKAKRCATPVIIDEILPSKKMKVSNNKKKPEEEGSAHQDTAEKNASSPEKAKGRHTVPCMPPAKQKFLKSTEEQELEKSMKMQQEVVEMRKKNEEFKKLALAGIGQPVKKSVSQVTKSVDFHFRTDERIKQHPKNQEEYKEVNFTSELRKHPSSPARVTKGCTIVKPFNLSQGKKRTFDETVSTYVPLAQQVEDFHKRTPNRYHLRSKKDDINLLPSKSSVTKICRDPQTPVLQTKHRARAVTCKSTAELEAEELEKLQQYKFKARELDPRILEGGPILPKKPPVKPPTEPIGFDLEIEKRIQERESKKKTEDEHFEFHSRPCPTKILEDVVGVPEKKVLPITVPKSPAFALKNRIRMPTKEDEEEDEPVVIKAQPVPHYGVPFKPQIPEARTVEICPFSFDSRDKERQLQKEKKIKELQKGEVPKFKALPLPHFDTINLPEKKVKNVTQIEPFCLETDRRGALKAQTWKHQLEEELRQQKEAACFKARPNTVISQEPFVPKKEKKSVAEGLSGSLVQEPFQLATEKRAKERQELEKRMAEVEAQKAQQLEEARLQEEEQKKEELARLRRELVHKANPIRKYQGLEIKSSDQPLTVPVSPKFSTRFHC

FAM204A = target: T2, FAM204A (Homo sapiens, UniProt Q9H8W3); experiment: Thermal proteome profiling (TPP) in A375 cells; assay type: cell-based
T2 construct: Treated A375 cells were harvested from 10 × 15 cm plates; endogenous in cells; host or cells: A375 melanoma cells
T2 sequence (Q9H8W3 whole entry): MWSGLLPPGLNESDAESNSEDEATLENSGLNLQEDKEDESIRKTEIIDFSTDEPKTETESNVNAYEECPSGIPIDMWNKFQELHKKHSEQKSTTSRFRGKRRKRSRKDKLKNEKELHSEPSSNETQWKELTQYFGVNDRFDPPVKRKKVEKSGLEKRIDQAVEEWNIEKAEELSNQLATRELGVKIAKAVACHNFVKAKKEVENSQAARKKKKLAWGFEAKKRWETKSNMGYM

M3 = M3 (Homo sapiens, UniProt P20309); experiment: Off-target profiling panel; assay type: binding; conditions: read-out: Inhibition by MBE1 at 10 μM (%)
M3, sequence (P20309 whole entry): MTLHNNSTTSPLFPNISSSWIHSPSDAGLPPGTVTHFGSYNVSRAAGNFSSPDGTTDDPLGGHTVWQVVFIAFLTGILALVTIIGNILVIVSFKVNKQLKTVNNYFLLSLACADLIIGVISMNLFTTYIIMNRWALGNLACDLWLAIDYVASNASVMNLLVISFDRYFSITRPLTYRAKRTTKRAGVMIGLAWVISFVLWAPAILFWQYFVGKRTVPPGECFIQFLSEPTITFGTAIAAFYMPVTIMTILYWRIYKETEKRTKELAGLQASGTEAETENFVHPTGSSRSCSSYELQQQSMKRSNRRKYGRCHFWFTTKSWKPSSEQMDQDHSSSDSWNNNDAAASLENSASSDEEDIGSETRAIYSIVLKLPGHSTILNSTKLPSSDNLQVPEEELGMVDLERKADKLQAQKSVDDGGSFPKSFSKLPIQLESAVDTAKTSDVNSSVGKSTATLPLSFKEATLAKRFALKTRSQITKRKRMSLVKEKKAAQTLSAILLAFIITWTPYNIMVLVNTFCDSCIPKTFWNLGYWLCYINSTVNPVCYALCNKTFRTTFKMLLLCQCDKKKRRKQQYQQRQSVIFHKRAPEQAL

NET = NET (Homo sapiens, UniProt P23975); experiment: Off-target profiling panel; assay type: binding; conditions: read-out: Inhibition by MBE1 at 10 μM (%)
NET, sequence (P23975 whole entry): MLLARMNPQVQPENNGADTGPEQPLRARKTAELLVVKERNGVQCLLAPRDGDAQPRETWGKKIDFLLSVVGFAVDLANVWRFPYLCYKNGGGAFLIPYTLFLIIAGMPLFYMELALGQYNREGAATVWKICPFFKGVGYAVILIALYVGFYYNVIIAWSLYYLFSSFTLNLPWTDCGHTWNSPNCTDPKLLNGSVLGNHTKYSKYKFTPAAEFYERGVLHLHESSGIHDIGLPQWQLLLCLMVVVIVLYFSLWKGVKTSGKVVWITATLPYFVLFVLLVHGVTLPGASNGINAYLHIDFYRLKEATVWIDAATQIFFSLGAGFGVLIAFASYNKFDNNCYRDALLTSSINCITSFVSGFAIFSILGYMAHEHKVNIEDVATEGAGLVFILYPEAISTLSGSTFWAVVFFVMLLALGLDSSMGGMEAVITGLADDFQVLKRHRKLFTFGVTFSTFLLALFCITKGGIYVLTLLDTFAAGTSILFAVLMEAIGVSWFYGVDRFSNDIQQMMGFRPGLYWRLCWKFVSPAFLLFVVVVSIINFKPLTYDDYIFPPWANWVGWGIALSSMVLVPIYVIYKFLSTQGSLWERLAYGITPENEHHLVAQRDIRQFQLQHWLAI

HEK293 cells = experiment: Metabolomic profiling of treated cell lines (raw metabolite counts); assay type: cell-based; conditions: HEK293_Inhibitor, replicates A-C
From the text: Supplement mmc8.xlsx, sheet "Supplement Table 7" | column: HEK293_Inhibitor_A; HEK293_Inhibitor_B; HEK293_Inhibitor_C

GABAA = experiment: Off-target profiling panel
D2 = D2 (Homo sapiens, UniProt P14416); experiment: Off-target profiling panel; assay type: binding; conditions: read-out: Inhibition by MBE1 at 10 μM (%)
D2, sequence (P14416 whole entry): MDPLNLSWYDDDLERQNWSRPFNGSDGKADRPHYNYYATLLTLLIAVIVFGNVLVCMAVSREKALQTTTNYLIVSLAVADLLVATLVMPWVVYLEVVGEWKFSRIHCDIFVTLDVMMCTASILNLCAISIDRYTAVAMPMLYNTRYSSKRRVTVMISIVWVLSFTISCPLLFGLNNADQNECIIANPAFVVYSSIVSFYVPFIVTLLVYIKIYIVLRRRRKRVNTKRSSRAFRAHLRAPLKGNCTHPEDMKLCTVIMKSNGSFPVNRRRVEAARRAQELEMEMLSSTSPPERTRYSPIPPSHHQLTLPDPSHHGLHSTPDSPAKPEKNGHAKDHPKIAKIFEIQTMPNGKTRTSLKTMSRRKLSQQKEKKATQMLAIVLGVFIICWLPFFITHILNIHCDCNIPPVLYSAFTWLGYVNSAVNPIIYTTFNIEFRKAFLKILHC

Ca2+-L = experiment: Off-target profiling panel; assay type: binding; conditions: 10 μM
op-kappa = op-kappa (Homo sapiens, UniProt P41145); experiment: Off-target profiling panel; assay type: binding; conditions: read-out: Inhibition by MBE1 at 10 μM (%)
op-kappa, sequence (P41145 whole entry): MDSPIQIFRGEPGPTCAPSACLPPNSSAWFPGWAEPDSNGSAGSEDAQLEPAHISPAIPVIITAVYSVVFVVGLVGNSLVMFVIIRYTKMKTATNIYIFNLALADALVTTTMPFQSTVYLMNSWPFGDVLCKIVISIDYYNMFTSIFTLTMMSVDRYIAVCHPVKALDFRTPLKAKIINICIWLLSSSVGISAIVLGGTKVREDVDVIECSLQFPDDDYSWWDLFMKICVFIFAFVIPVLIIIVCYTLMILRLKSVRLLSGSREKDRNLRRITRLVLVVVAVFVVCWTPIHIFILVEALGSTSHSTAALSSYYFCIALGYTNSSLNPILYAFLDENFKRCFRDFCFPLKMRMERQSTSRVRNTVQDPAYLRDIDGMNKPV

5HTT = 5HTT (Homo sapiens, UniProt P31645); experiment: Off-target profiling panel; assay type: binding; conditions: read-out: Inhibition by MBE1 at 10 μM (%)
5HTT, sequence (P31645 whole entry): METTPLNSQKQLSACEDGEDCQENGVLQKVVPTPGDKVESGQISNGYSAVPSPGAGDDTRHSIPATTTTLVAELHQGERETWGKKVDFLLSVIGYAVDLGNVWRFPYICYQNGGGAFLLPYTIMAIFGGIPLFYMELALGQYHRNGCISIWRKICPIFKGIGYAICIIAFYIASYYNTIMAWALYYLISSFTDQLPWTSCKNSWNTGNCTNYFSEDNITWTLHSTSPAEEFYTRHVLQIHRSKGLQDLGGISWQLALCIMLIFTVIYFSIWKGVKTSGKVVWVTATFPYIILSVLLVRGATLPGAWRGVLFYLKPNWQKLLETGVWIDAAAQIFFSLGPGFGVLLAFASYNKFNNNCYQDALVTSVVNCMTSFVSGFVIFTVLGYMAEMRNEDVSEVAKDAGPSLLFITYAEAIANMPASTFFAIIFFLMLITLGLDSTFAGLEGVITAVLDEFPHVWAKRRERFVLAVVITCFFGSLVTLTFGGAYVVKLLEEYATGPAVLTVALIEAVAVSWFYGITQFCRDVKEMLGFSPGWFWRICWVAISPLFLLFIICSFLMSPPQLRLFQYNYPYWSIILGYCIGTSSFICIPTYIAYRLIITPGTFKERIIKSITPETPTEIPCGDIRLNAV

RHPN2 = target: T3, RHPN2 (Homo sapiens, UniProt Q8IUC4); experiment: Thermal proteome profiling (TPP) in A375 cells; assay type: cell-based; conditions: RHPN2, 100 nM
T3 construct: Treated A375 cells were harvested from 10 × 15 cm plates; endogenous in cells; host or cells: A375 melanoma cells
T3 sequence (Q8IUC4 whole entry): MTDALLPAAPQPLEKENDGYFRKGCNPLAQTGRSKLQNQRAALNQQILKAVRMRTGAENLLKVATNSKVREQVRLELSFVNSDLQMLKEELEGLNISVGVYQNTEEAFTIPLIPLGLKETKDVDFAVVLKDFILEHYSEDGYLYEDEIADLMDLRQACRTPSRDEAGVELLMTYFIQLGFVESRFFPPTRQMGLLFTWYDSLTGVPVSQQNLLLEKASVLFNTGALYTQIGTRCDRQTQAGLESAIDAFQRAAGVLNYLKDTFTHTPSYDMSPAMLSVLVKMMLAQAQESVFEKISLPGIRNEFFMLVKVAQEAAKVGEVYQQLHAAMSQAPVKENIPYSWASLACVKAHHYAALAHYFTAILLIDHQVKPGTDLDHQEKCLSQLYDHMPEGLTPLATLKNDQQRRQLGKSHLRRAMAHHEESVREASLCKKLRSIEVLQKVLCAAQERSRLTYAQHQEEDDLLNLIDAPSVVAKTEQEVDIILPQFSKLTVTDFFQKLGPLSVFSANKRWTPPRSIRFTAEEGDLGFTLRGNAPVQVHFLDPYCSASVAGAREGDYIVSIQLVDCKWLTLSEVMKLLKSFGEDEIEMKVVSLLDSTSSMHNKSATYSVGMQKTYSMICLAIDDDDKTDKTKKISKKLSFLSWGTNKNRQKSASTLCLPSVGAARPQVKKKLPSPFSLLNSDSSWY

CCc1cnccc1C(=O)Nc1cc2c(cc1F)NC(=O)CC2 [MBE1, 3-ethyl-N-(7-fluoro-2-oxo-3,4-dihydro-1H-quinolin-6-yl)pyridine-4-carboxamide]
Inhibition by MBE1 at 10 μM (%) (NMDA): −13.59% | 100nM MBE1 Tm (TPX2): 64 | DMSO-100nM MBE1 TM (TPX2): -7.655 | 100nM MBE1 Tm (FAM204A): 63.4426 | DMSO-100nM MBE1 TM (FAM204A): -8.6993 | inhibition at 10 µM (M3): -13.4% | inhibition at 10 µM (NET): -19.9% | Raw counts of 2-Hydroxybutyric acid (HEK293 cells): 460406 and 376147 and 351707 | Raw counts of 3-Hydroxybutyric acid (HEK293 cells): 2036524 and 1752460 and 1814028 | Raw counts of 3-Phosphoglycerate (HEK293 cells): 54741.2 and 47239.6 and 67920.5 | Raw counts of 3-Phosphoserine (HEK293 cells): 379486 and 687080 and 597417 | Raw counts of 6-Phosphogluconate (HEK293 cells): 18526.1 and 6100.06 and 8926.16 | Raw counts of Carbamoyl phosphate (HEK293 cells): 141074 and 139557 and 164484 | Raw counts of Citrulline (HEK293 cells): 520045 and 463794 and 470630 | Raw counts of Cytidine (HEK293 cells): 7575.12 and 7385.3 and 7444.6 | Raw counts of Hypoxanthine (HEK293 cells): 234438 and 380137 and 398453 | Raw counts of Isoleucine (HEK293 cells): 1.16E+08 and 1.15E+08 (2×) | Raw counts of Lactate (HEK293 cells): 5.47E+08 and 4.80E+08 and 4.40E+08 | Raw counts of Leucine (HEK293 cells): 9.35E+07 and 8.69E+07 and 8.73E+07 | Raw counts of Methionine (HEK293 cells): 2.07E+07 and 2.11E+07 and 2.08E+07 | Raw counts of N-acetyl-glutamine (HEK293 cells): 1122707 and 1247401 and 1071948 | Raw counts of Orotate (HEK293 cells): 98388.4 and 120085 and 73533.2 | Raw counts of Phenylalanine (HEK293 cells): 8.50E+07 and 7.66E+07 and 8.04E+07 | Raw counts of Phosphoenolpyruvate (HEK293 cells): 10515.5 and 13057.1 and 9934.64 | Raw counts of Pyridoxine (HEK293 cells): 4.65E+07 and 4.40E+07 and 4.42E+07 | Raw counts of Pyruvate (HEK293 cells): 7987114 and 6360434 and 6733166 | Raw counts of Ribitol (HEK293 cells): 2730293 and 2993915 and 2689879 | Raw counts of Sorbitol (HEK293 cells): 1.69E+07 and 1.55E+07 and 1.59E+07 | Raw counts of Taurine (HEK293 cells): 2.13E+07 and 2.37E+07 and 2.28E+07 | Raw counts of Tryptophan (HEK293 cells): 1.16E+07 and 1.11E+07 and 1.10E+07 | Raw counts of Tyrosine (HEK293 cells): 4.24E+07 and 4.04E+07 and 3.95E+07 | Raw counts of UDP (HEK293 cells): 175249 and 191418 and 196338 | Raw counts of Uracil (HEK293 cells): 1015162 and 942022 and 907732 | Raw counts of Uridine (HEK293 cells): 82140.1 and 83430.9 and 107857 | Raw counts of Valine (HEK293 cells): 7.12E+07 and 6.86E+07 and 6.72E+07 | Raw counts of Xanthine (HEK293 cells): 7637154 and 6442670 and 6627934 | Inhibition by MBE1 at 10 μM (%) (GABAA): −5.08% | inhibition at 10 µM (D2): 1.45% | Inhibition by MBE1 at 10 μM (%) (Ca2+-L): −0.09% | inhibition at 10 µM (op-kappa): -12.6% | inhibition at 10 µM (5HTT): -24.2% | 100nM MBE1 Tm (RHPN2): 58.0062 | DMSO-100nM MBE1 TM (RHPN2): -9.514
